# Experimental data as given in EP0020955A1, “Geometrical isomers of 4,4-dimethyl-1-phenyl-2-(1,2,4-triazole-1-yl)-1-penten-3-ols, process for their preparation and medicament containing them” (BAYER AG, priority 1979, dated 1981).
# Tests used:
# Trichophyton mentagr. = test: Antifungal in vitro activity, agar dilution test (MIC); format: cell-based, Trichophyton mentagrophytes; conditions: Kimmig agar, inoculum 2 - 5 x 10^3 fungal particles per spot, dermatophytes 96 h, 27°C
# Excerpt: (§1) Versuchsbeschreibung: • Die in-vitro-Wirksamkeit - gemessen anhand der minimalen Hemmkonzentration - wurde im Agarverdünnungstest ermittelt. Auf Serien von Kimmig - Agarplatten, die die entsprechenden Wirkstoffkonzentrationen im Agar gelöst enthielten, wurden mit Hilfe eines automatischen Beimpfungsgerätes Proben der Keimsuspesionen tropfenförmig aufgebracht. Das Inokulum betrug 2 - 5 x 10^3 Pilzpartikel pro Impfpunkt. Im Falle der Hefen lag die Bebrütungsdauer bei 24 Stunden, im Falle der Dermatophyten bei 96 Stunden; Bebrütungstemperatur 27°C.
# Aspergillus fumigatus = test: as above; format: cell-based; conditions: Kimmig agar, inoculum 2 - 5 x 10^3 fungal particles per spot, 27°C
# Excerpt: as §1
# Candida albicans = test: as above; format: cell-based; conditions: Kimmig agar, inoculum 2 - 5 x 10^3 fungal particles per spot, yeasts 24 h, 27°C
# Excerpt: as §1
# Microsporon canis = test: as above; format: cell-based; conditions: Kimmig agar, inoculum 2 - 5 x 10^3 fungal particles per spot, dermatophytes 96 h, 27°C
# Excerpt: as §1
# Torulopsis glabrata = test: as above; format: cell-based; conditions: Kimmig agar, inoculum 2 - 5 x 10^3 fungal particles per spot, yeasts 24 h, 27°C
# Excerpt: as §1
# Candida-Zellen = test: Antimicrobial in vivo activity (oral) in mouse candidosis; parameters: species or system Mäuse vom Typ SPF-CF; conditions: mice infected i.v. with Candida; 12,5 bis 25mg/kg 2 x daily over 5 days oral; survivors on day 6 p.i.
# Description: Mäuse vom Typ SPF-CF werden intravenös mit 1-2 x 10^6 1 logarithmisch wachsenden Candida-Zellen, suspendiert in physiologischer Kochsalzlösung, infiziert. Die Tiere werden mit Dosierungen von 12,5 bis 25mg/kg Körpergewicht 2 x täglich über 5 Tage oral behandelt.
# Unbehandelte Tiere starben 3 bis 6 Tage post infektionem. Die Ueberlebensrate am 6.Tag post infektionem betrug bei unbehandelten Kontrolltieren etwa 5 %.
# [1] = test system: Trichophyton mentagrophytes; test: Antimicrobial in vivo activity (local and oral) in experimental guinea pig trichophytosis; parameters: species or system Meerschweinchen der Rasse Pirbright-white; conditions: for Wirkung lokale Therapie (1%-ige Lösung): local, 1 x daily from day 3 p.i., 1% solution in Dimethylsulfoxid : Glycerin = 1 : 4
# Excerpt: Versuchsbeschreibung: • Weiße Meerschweinchen der Rasse Pirbright-white werden auf dem geschorenen, nicht skarifizierten Rücken mit einer Mikro- und Makrokonidien-Suspension von Trichophyton mentagrophytes infiziert. Bei unbehandelten Tieren entwickelt sich innerhalb 12 Tagen p.i. das typische Bild einer Dermatophytose mit Rötung, Schuppung und Haarausfall bis zum totalen Integument-Defekt an der Infektionsstelle. […]
Compound,Minimale Hemmkonzentration (Trichophyton mentagr.),Minimale Hemmkonzentration (Aspergillus fumigatus),Minimale Hemmkonzentration (Candida albicans),Minimale Hemmkonzentration (Microsporon canis),Minimale Hemmkonzentration (Torulopsis glabrata),Wirkung (Candida-Zellen),Wirkung lokale Therapie (1%-ige Lösung) [1],"MIC (Torulopsis glabrata; Nakaseomyces glabratus, 24 h, read-out: Minimale Hemmkonzentration)","Wirkung orale Therapie (50mg/kg/die) ([1]; oral, 1 x daily from day of infection, aqueous solution)"
"1-(4-Chlorphenyl)-4,4-dimethyl-2-(1,2,4-triazol-1-yl)-1-penten-3-ol [geometrisches Isomerengemisch (bekannt)]",<1 µg/mL,8 µg/mL,8 µg/mL,8 µg/mL,4 µg/mL,+++ (Wirkung = ≥60% Ueberlebende am 6.Tag p.i.),schwache Wirkung,,
"CC(C)(C)C(O)C(=Cc1ccc(Cl)cc1)n1cncn1 (single isomer, unassigned) [Form A, 1-(4-Chlorphenyl)-4,4-dimethyl-2-(1,2,4-triazol-1-yl)-1-penten-3-ol]",4 µg/mL,32 µg/mL,4 µg/mL,32 µg/mL,,kW (keine Wirkung),,1 µg/mL,
"CC(C)(C)C(O)C(=Cc1ccc(Cl)cc1)n1cncn1 (single isomer, unassigned) [Form B(1), 1-(4-Chlorphenyl)-4,4-dimethyl-2-(1,2,4-triazol-1-yl)-1-penten-3-ol]",<1 µg/mL,1 to 4 µg/mL,<1 µg/mL,<1 µg/mL,<1 µg/mL,+++++ (sehr gute Wirkung = >95% Ueberlebende am 6.Tag p.i.),sehr gute Wirkung,,sehr gute Wirkung
